Values after ≈ are worked out from the molar mass of the structure shown.
Columns and labels:
Caco-2 cell monolayer = experiment: Caco-2 Permeation Assay; format: in vitro ADME; conditions: Papp, 5 μM compound
Method: Assay 3: Caco-2 Permeation Assay
The Caco 2 permeability assay was used as a surrogate for assessment of skin permeability. This assay measures the in vitro permeability across a monolayer of Caco-2 cells, which morphologically and functionally resemble the enterocytes of the small intestine.
CacoReady 24-well transwell plates were obtained from ADMEcell (Alameda, Calif.). The compounds were evaluated at a concentration of 5 μM from 10 mM DMSO stock solutions in duplicate (n=2). Transport in the apical to basal (A→B) direction was determined in Caco 2 cell monolayers. From these values the apparent permeability (Papp) was calculated. To inform on the potential of the compound to be a P-gp substrate, the transport of the compound across the Caco-2 cell monolayer was also determined in the presence of 25 μM of the known P-gp inhibitor verapamil (Yusa and Tsuruo et al., Cancer Research, vol. 49, no. 18, 1989, pp. 5002-06).
Caco-2 culture media consisted of standard filtered DMEM, FCS 10%, L-Glutamine 1%, and PenStrep 1%. The experiment was conducted at 37° C. and in a CO2 (5%) incubator. The basal assay plate was prepared by adding 750 pt of transport buffer to A→B wells. A CacoReady™ plate was prepared by removing the Caco-2 media from the apical wells and replacing with fresh transport media (200 pt repeated for a total of 3 washes). Blank media (200 μL) was then replaced with diluted compound. To begin the incubation, the basal plate was removed from the incubator and the apical section was added on top of it. Samples were collected from the apical and basal compartments for time zero (t0). Samples were collected again after 120 minutes (t120) from the apical and basal compartments. All samples were diluted and prepared for bioanalysis by LC-MS/MS. The permeability coefficients (Papp, mean A to B) and (Papp, mean A to B+Verapamil) in cm/sec were calculated as dQ (flux)/(dt×Area×concentration).
In this assay, a compound with a Papp value of more than about 12×10−6 cm/sec is considered to have high permeability.

JAK1 = JAK1 (Homo sapiens (Human), UniProt P23458); experiment: Biochemical JAK and Tyk2 Kinase Assays (LanthaScreen), JAK1; conditions: 25 μM ATP (Km), pIC50 converted to pKi by Cheng-Prusoff
Sequence of JAK1 (P23458 whole entry): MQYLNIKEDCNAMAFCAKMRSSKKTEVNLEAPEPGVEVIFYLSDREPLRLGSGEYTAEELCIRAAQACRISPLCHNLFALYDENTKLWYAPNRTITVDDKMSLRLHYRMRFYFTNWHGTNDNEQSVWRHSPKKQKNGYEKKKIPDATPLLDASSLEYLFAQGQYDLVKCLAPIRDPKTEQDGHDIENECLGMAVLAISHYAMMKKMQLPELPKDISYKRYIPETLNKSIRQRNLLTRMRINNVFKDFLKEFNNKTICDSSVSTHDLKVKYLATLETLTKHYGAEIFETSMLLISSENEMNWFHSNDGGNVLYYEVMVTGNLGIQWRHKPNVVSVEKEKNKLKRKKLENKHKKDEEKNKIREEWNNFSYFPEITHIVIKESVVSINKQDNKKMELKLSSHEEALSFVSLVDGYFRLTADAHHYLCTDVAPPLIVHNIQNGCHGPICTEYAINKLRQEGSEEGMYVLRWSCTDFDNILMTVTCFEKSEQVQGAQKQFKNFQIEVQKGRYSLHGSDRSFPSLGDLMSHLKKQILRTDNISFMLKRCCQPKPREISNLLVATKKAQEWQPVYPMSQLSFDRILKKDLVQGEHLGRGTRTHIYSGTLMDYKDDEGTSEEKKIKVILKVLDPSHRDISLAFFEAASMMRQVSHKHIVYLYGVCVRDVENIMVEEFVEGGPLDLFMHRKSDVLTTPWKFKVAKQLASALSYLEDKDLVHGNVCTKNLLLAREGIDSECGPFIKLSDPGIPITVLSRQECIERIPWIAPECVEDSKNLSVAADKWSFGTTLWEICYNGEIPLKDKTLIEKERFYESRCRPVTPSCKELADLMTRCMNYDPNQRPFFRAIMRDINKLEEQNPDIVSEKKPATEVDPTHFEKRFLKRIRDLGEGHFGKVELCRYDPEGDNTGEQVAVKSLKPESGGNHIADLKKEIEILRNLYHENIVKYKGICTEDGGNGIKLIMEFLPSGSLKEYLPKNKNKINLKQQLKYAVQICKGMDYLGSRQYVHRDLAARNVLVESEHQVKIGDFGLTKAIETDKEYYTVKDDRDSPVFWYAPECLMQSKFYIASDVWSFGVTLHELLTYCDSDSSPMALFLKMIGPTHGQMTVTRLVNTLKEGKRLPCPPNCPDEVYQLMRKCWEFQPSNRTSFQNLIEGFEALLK
Method: (§1) Assay 1: Biochemical JAK and Tyk2 Kinase Assays
(§2) A panel of four LanthaScreen JAK biochemical assays (JAK1, 2, 3 and Tyk2) were carried in a common kinase reaction buffer (50 mM HEPES, pH 7.5, 0.01% Brij-35, 10 mM MgCl2, and 1 mM EGTA). Recombinant GST-tagged JAK enzymes and a GFP-tagged STAT1 peptide substrate were obtained from Life Technologies.
(§3) Serially or discretely diluted compounds were pre-incubated with each of the four JAK enzymes and the substrate in white 384-well microplates (Corning) at ambient temperature for 1 h. ATP was subsequently added to initiate the kinase reactions in 10 μL total volume, with 1% DMSO. The final enzyme concentrations for JAK1, 2, 3 and Tyk2 are 4.2 nM, 0.1 nM, 1 nM, and 0.25 nM respectively; the corresponding Km ATP concentrations used are 25 μM, 3 μM, 1.6 μM, and 10 μM; while the substrate concentration is 200 nM for all four assays. Kinase reactions were allowed to proceed for 1 hour at ambient temperature before a 10 μL preparation of EDTA (10 mM final concentration) and Tb-anti-pSTAT1 (pTyr701) antibody (Life Technologies, 2 nM final concentration) in TR-FRET dilution buffer (Life Technologies) was added. The plates were allowed to incubate at ambient temperature for 1 h before being read on the EnVision reader (Perkin Elmer). Emission ratio signals (520 nm/495 nm) were recorded and utilized to calculate the percent inhibition values based on DMSO and background controls.
(§4) For dose-response analysis, percent inhibition data were plotted vs. compound concentrations, and IC50 values were determined from a 4-parameter robust fit model with the Prism software (GraphPad Software). Results were expressed as pIC50 (negative logarithm of IC50) and subsequently converted to pKi (negative logarithm of dissociation constant, Ki) using the Cheng-Prusoff equation.

[1] = system: IL-2 stimulated pSTAT5 in Tall-1 T cells; experiment: Inhibition of IL-2 Stimulated pSTAT5 in Tall-1 T Cells; format: cell-based; conditions: Tall-1 human T cell line, IL-2 300 ng/mL, AlphaLisa; read-out: Tall-1 IL2 pSTAT5 (pIC50) (converted)
Method: Assay 2: Inhibition of IL-2 Stimulated pSTAT5 in Tall-1 T Cells
The potency of test compounds for inhibition of interleukin-2 (IL-2) stimulated STATS phosphorylation was measured in the Tall-1 human T cell line (DSMZ) using AlphaLisa. Because IL-2 signals through JAK1/3, this assay provides a measure of JAK1/3 cellular potency.
Phosphorylated STATS was measured via the AlphaLISA SureFire Ultra pSTAT5 (Tyr694/699) kit (PerkinElmer). Human T cells from the Tall-1 cell line were cultured in a 37° C., 5% CO2 humidified incubator in RPMI (Life Technologies) supplemented with 15% Heat Inactivated Fetal Bovine Serum (FBS, Life Technologies), 2 mM Glutamax (Life Technologies), 25 mM HEPES (Life Technologies) and 1× Pen/Strep (Life Technologies). Compounds were serially diluted in DMSO and dispensed acoustically to empty wells. Assay media (phenol red-free DMEM (Life Technologies) supplemented with 10% FBS (ATCC)) was dispensed (4 μL/well) and plates shaken at 900 rpm for 10 mins. Cells were seeded at 45,000 cells/well in assay media (4 μL/well), and incubated at 37° C., 5% CO2 for 1 hour, followed by the addition of IL-2 (R&D Systems; final concentration 300 ng/mL) in pre-warmed assay media (4 μL) for 30 minutes. After cytokine stimulation, cells were lysed with 6 ul of 3× AlphaLisa Lysis Buffer (PerkinElmer) containing 1× PhosStop and Complete tablets (Roche). The lysate was shaken at 900 rpm for 10 minutes at room temperature (RT). Phosphorylated STATS was measured via the pSTAT5 AlphaLisa kit (PerkinElmer). Freshly prepared acceptor bead mixture was dispensed onto lysate (51) under green filtered <100 lux light. Plates were shaken at 900 rpm for 2 mins, briefly spun down, and incubated for 2 hrs at RT in the dark. Donor beads were dispensed (5 μL) under green filtered <100 lux light. Plates were shaken at 900 rpm for 2 minutes, briefly spun down, and incubated overnight at RT in the dark. Luminescence was measured with excitation at 689 nm and emission at 570 nm using an EnVision plate r reader (PerkinElmer) under green filtered <100 lux light.
To determine the inhibitory potency of test compounds in response to IL-2, the average emission intensity of beads bound to pSTAT5 was measured in a human T cell line. IC50 values were determined from analysis of the inhibition curves of signal intensity versus compound concentration. Data are expressed as pIC50 (negative decadic logarithm IC50) values (mean±standard deviation).

physchem = conditions: thermodynamic from solid
JAK3 = JAK3 (Homo sapiens (Human), UniProt P52333); experiment: Biochemical JAK and Tyk2 Kinase Assays (LanthaScreen), JAK3; conditions: 1.6 μM ATP (Km); pIC50 converted to pKi by Cheng-Prusoff; read-out: JAK 3 (pKi) (converted)
Sequence of JAK3 (P52333 whole entry): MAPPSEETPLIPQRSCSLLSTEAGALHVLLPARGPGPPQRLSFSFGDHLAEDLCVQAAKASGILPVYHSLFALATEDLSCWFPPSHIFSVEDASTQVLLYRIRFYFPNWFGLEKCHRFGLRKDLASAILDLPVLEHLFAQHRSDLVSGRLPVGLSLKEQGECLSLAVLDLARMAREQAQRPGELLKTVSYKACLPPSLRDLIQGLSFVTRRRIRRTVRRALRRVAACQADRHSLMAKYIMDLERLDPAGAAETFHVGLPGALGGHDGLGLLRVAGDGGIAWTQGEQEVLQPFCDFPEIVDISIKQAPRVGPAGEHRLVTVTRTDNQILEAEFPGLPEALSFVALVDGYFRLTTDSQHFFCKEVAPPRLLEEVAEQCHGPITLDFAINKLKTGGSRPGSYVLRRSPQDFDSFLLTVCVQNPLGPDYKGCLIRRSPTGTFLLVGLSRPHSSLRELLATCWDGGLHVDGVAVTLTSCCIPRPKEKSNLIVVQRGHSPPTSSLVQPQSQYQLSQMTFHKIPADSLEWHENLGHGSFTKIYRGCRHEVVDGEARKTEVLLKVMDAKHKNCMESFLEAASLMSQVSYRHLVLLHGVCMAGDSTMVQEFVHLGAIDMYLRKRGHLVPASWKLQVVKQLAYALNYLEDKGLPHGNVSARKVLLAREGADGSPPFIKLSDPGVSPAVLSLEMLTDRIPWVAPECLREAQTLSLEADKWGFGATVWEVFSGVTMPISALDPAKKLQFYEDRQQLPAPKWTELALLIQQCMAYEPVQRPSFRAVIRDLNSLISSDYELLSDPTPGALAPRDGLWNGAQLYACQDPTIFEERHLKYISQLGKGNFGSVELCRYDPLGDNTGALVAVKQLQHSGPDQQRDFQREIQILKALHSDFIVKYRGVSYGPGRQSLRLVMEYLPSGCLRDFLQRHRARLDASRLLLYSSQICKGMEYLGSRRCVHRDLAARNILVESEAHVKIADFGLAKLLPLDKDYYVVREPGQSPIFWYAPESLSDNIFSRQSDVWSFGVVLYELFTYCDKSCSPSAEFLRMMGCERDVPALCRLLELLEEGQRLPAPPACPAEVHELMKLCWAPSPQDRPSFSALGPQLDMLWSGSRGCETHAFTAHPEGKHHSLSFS
Method: as §1, §2, §3, §4

[2] = oil or lipid, Solubility in MCT (mg/mL)
[3] = organic solvent or mixture, Solubility in Diisopropyl adipate (mg/mL)
[4] = organic solvent or mixture, Solubility in PEG400 (mg/mL)
[5] = organic solvent or mixture, Solubility in Propylene glycol (mg/mL)

Row | Compound | Cacoverap Kp 10^−6 cm/sec (Caco-2 cell monolayer; A→B in the presence of 25 μM verapamil (P-gp inhibitor)) | Caco Kp 10^−6 cm/sec (Caco-2 cell monolayer; apical to basal (A→B)) | Ki (JAK1; read-out: JAK 1 (pKi) (converted)) | IC50 [1] | solubility at 4 h (physchem; [2]) | solubility at 4 h (physchem; [3]) | solubility at 4 h (physchem; [4]) | solubility at 4 h (physchem; [5]) | Ki (JAK3) | JAK 1 (pKi) (JAK1)
1 | COC(=O)N1[C@@H]2CCC[C@H]1C[C@H](N(C)c1nc(Nc3cc(C)[nH]n3)cc(OC3COC3)n1)C2 [Compound 36] | B (B represents a value between 20×10^−6 and 35×10^−6 cm/sec) | B (B represents a value between 15×10^−6 and 30×10^−6 cm/sec) | 0.1 to 1 nM | ≤ 10 nM | < 5000 µg/mL | 5000 to 10000 µg/mL (≈ 10.9 to 21.9 mM) | > 10000 µg/mL | > 10000 µg/mL | 1 to 10 nM | 
2 | Cc1cc(Nc2cc(O[C@@H]3CCOC3)nc(N(C)[C@@H]3C[C@H]4CCC[C@@H](C3)N4C(=O)CC3CC3)n2)n[nH]1 [Compound 26] |  |  |  | ≤ 10 nM | < 5000 µg/mL | < 5000 µg/mL | < 5000 µg/mL | < 5000 µg/mL | 0.1 to 1 nM | A (A represents a pKi value ≥10 (Ki≤0.1 nM))
3 | Cc1cc(Nc2cc(O[C@H]3CCOC3)nc(N(C)[C@@H]3C[C@H]4CCC[C@@H](C3)N4C(=O)CC3CC3)n2)n[nH]1 [Compound 30] |  |  |  | ≤ 10 nM | < 5000 µg/mL | < 5000 µg/mL | < 5000 µg/mL | < 5000 µg/mL | 0.1 to 1 nM | A (A represents a pKi value ≥10 (Ki≤0.1 nM))
4 | COCCC(=O)N1[C@@H]2CCC[C@H]1C[C@H](N(C)c1nc(Nc3cc(C)[nH]n3)cc(O[C@H]3CCOC3)n1)C2 [Compound 29] |  |  |  | ≤ 10 nM | < 5000 µg/mL | > 10000 µg/mL | 5000 to 10000 µg/mL (≈ 10 to 20 mM) | > 10000 µg/mL | 0.1 to 1 nM | A (A represents a pKi value ≥10 (Ki≤0.1 nM))
5 | Cc1cc(Nc2cc(OC3COC3)nc(N(C)[C@@H]3C[C@H]4CCC[C@@H](C3)N4CC(=O)N3CCCC3)n2)n[nH]1 [Compound 38] |  |  |  | ≤ 10 nM | < 5000 µg/mL | < 5000 µg/mL | < 5000 µg/mL | < 5000 µg/mL | 0.1 to 1 nM | A (A represents a pKi value ≥10 (Ki≤0.1 nM))
6 | Cc1cc(Nc2cc(O[C@@H]3CCOC3)nc(N(C)[C@@H]3C[C@H]4CCC[C@@H](C3)N4CC(=O)N3CCCC3)n2)n[nH]1 [Compound 19] |  |  |  | ≤ 10 nM | < 5000 µg/mL | < 5000 µg/mL | < 5000 µg/mL | < 5000 µg/mL | 0.1 to 1 nM | A (A represents a pKi value ≥10 (Ki≤0.1 nM))
7 | COC(=O)N1[C@@H]2CCC[C@H]1C[C@H](N(C)c1nc(Nc3cc(C)[nH]n3)cc(O[C@H]3CCOC3)n1)C2 [Compound 27] |  |  |  | 10 to 31.6 nM | < 5000 µg/mL | < 5000 µg/mL | < 5000 µg/mL | < 5000 µg/mL | 0.1 to 1 nM | A (A represents a pKi value ≥10 (Ki≤0.1 nM))
8 | CCC(=O)N1[C@@H]2CCC[C@H]1C[C@H](N(C)c1nc(Nc3cc(C)[nH]n3)cc(O[C@H]3CCOC3)n1)C2 [Compound 28] |  |  |  | ≤ 10 nM | < 5000 µg/mL | 5000 to 10000 µg/mL (≈ 10.6 to 21.3 mM) | 5000 to 10000 µg/mL (≈ 10.6 to 21.3 mM) | > 10000 µg/mL | 0.1 to 1 nM | A (A represents a pKi value ≥10 (Ki≤0.1 nM))
9 | CCNC(=O)CN1[C@@H]2CCC[C@H]1C[C@H](N(C)c1nc(Nc3cc(C)[nH]n3)cc(OC3COC3)n1)C2 [Compound 37] |  |  |  | ≤ 10 nM | < 5000 µg/mL | < 5000 µg/mL | < 5000 µg/mL | < 5000 µg/mL | 0.1 to 1 nM | A (A represents a pKi value ≥10 (Ki≤0.1 nM))
10 | CCOC(=O)N1[C@@H]2CCC[C@H]1C[C@H](N(C)c1nc(Nc3cc(C)[nH]n3)cc(O[C@@H]3CCOC3)n1)C2 [Compound 24] |  |  |  | 10 to 31.6 nM | < 5000 µg/mL | < 5000 µg/mL | < 5000 µg/mL | < 5000 µg/mL | 0.1 to 1 nM | A (A represents a pKi value ≥10 (Ki≤0.1 nM))

Source: patent US11439641B2, “Pyrimidine JAK inhibitors for the treatment of skin diseases” (THERAVANCE BIOPHARMA R&D IP, LLC, priority 2019, dated 2022)
